Entries after “also recorded” stand apart in the source; their conditions may differ. Where two headings read alike, the source gives them in different places.
Legend:
[1] = test system: VSV-G pseudotyped HIV-1 vector (wild-type, pNL4-3LucR+E-); experiment: microbe, parasite or virus in culture; assay type: cell-based; details: for EC50 / IC50: Human immunodeficiency virus 1, HEK-293T
[2] = target: T1, HIV-1 reverse transcriptase (Human immunodeficiency virus type 1 group M subtype B, UniProt P04585); experiment: in vitro purified HIV-1 reverse transcriptase assay; assay type: biochemical
T1 construct: HIV-1 RT includes a p66/p51 heterodimer; purchased Ambion, Austin, Tex
Procedure: Anti-HIV-1 reverse transcriptase activity of the disclosed inhibitor compounds was assayed in vitro using an assay adapted from King et al. (Antimicrob. Agents Chemother. 46(6): 1640-46; 2002) and Telesnitsky et al. (Methods Enzymol. 262:347-62; 1995). HIV-1 RT (0.5 units; Ambion, Austin, Tex.) was incubated with various concentrations of compounds for 5 minutes at room temperature. Then a template-primer mixture was added to reach final concentration of 5 μg/mL oligo(dT)20, 10 μg/mL poly(rA), 1.25 μM [α-32P]dTTP and 10 μM dTTP. The mixture was incubated at 37° C. for 60 minutes. Aliquots of the reaction were spotted on DEAE paper, washed twice with 2×SSC buffer (300 mM NaCl, 30 mM sodium citrate) and once with 95% ethanol, dried and exposed to PhosphorImager screen (Molecular Dynamics, Sunnyvale, Calif.). The screens were scanned by FLA-5100 instrument (Fujifilm Life Science, Stamford, Conn.) and the amount of incorporated labeled phosphate was used to quantify the RT activity. The best fitted curves and IC50 values were calculated using Prism 4 software (GraphPad Software, San Diego). […] For the in vitro studies, a triphosphate form of AZT (EMD Biosciences, San Diego, Calif.) was used.

[3] = test system: HIV-1 reverse transcription viral DNA products; experiment: real-time PCR quantitation of viral DNA products; assay type: cell-based; details: for effect on synthesis of early and late viral DNA products: 5 μM, 24 hours post infection, FIG. 18
Procedure: Real-time quantitation of viral DNA was accomplished using PCR as follows. The total cellular DNA was harvested 24 hours post infection with the AccuPrep genomic DNA extraction kit (Bioneer Life Science Corp., Rockville, Md.). The amount of viral DNA products was quantified by real-time PCR on ABI Prism 7900 Sequence Detection System (Applied Biosystems, Foster City, Calif.) with the following primers and probes: early HIV-1 reverse transcripts with primers ert2f, ert2r, probe ERT2 (Munk et al., Proc. Natl. Acad. Sci. 99(21):13843-48; 2002, herein incorporated by reference as to the sequence of the primers), late HIV-1 reverse transcripts with primers MH531, MH532, probe LRT-P, 2-LTR circular DNA with primers MHH535, MH536, probe MH603 (Butler et al., Nat. Med. 7(5):631-4; 2001, herein incorporated by reference as to the sequence of the primers and probes). To control the number of cell equivalent DNA in the samples, a single-copy locus in the porphobilinogen deaminase (PBGD) gene (Buckman et al., J. Virol. 77(2):1469-80; 2003) was amplified with primers PBGD1 (5′-[…]; SEQ ID NO: 1) and PBGD2 (5′-[…]; SEQ ID NO: 2) and probe PBGD-P (5′-VIC-[…]-MGBNFQ; SEQ ID NO: 3).
The quantitative real-time PCR-based approach described above was used to determine whether the presently disclosed compounds, such as 08-006-F2, block HIV infection at a step prior to the synthesis of late viral DNA products. Using different specific primers and probes, the amount of early viral DNA products, late viral DNA products, and 2LTR-containing circular forms of viral DNA, were quantified 24 hours post infection. […] As shown in F1G. 18, the effect of 5 μM compound 08-006-F2 and 5 μM AZT on the synthesis of viral DNA products was measured by quantitative real-time PCR. Quantitation of early and late HIV-1 reverse transcription products is illustrated, as is quantitation of 2-LTR containing circular DNA forms (the circular DNA forms serve as a surrogate marker for nuclear translocation of viral DNA). […]

[4] = test system: cells that express luciferase from established HIV-1 proviral DNA; experiment: effect on provirus gene expression; assay type: cell-based; details: data not shown
Description: It also was investigated whether 08-006-F2 exerts an additional effect on provirus gene expression.

[5] = test system: HIV-1 vector with RT mutation Y181C; experiment: microbe, parasite or virus in culture; assay type: cell-based; details: Human immunodeficiency virus 1
[6] = test system: HIV-1 vector with RT mutation V106A; experiment: microbe, parasite or virus in culture; assay type: cell-based; details: Human immunodeficiency virus 1
[7] = test system: HIV-1 vector with RT mutation K103N; experiment: microbe, parasite or virus in culture; assay type: cell-based; details: Human immunodeficiency virus 1
[8] = cytotoxicity, CellTiter-Glo (ATP content) 24 hours after treatment; details: human, mock-infected 293T cells
[9] = test system: HIV-1 vector with RT mutation Y188L; experiment: microbe, parasite or virus in culture; assay type: cell-based; details: Human immunodeficiency virus 1
[10] = test system: wild-type and NNRTI mutant viruses (Y188L, Y181C, V106A, K103N); experiment: cell based infectivity assay, wild type and four mutant vectors together; parameters: species or system HIV-1; details: FIGS. 22 and 24
[11] = test system: HIV reverse transcriptase having a mutation at codon 181 and 227; details: strains with RT mutation at codon 181 (cysteine) and 227 (leucine); U.S. Pat. No. 7,037,644; cited from earlier work
[12] = test system: HIV reverse transcriptase having a mutation at codon 106 and 181 and 227; details: strains with RT mutation at codon 106 (alanine), 181 (cysteine) and 227 (leucine); U.S. Pat. No. 7,037,644; cited from earlier work
[13] = test system: HIV reverse transcriptase having a mutation at codons 103 alone or in combination with a mutation at codon 188; details: strains with RT mutation at codon 103 (asparagine) alone or with 188 (leucine); U.S. Pat. No. 7,037,644; cited from earlier work

| SMILES | EC50 [1] [nM] | effect on synthesis of early and late viral DNA products [3] | EC50 [5] [nM] | EC50 [6] [nM] | EC50 [7] [nM] | EC50 [9] [nM] | change in drug susceptibility [11] | change in drug susceptibility [12] | change in drug susceptibility [13] | also measured |
| --- | --- | --- | --- | --- | --- | --- | --- | --- | --- | --- |
| Clc1ccccc1-c1nc2ccccn2c1NC1CCCCC1 [08-006-F2] | 185 | blocked the synthesis of early and late viral DNA | 1070 | 764 | 2360 | – | – | – | – | combined effect with AZT on HIV-1 infectivity (isobologram) [1]: synergistic effects; also recorded: synergistic inhibition; IC50 [1]: 800 nM; IC50 ([1]; read-out: IC50 inhibition of HIV-1 vector infectivity): 170 nM; IC50 ([2]; FIG. 16 dose-response curve, read-out: IC50 inhibition of purified HIV-1 reverse transcriptase activity): 2800 nM; combined effect with AZT on purified HIV-1 reverse transcriptase (isobologram) ([2]; combination with AZT triphosphate, 50% and 90% fractional inhibitory concentrations, FIGS. 17A, 17B): synergistic effect; also recorded: synergistic inhibition; inhibition of HIV-1 late RT product formation ([3]; dose response, FIG. 19): dose-dependent inhibition; effect on provirus gene expression [4]: no significant influence; CC50 at 24 h [8]: 35000 nM |
| Cc1cn([C@H]2C[C@H](N=[N+]=[N-])[C@@H](CO)O2)c(=O)[nH]c1=O [AZT, zidovudine] | 7.7 | block at the reverse transcription step | 6.12 | 9.14 | 8.76 | 9.35 | – | – | – | inhibition of wild-type and NNRTI-resistant RT mutant viruses (in words) [10]: efficiently inhibited |
| Cc1ccnc2c1NC(=O)c1cccnc1N2C1CC1 [NVP, nevirapine] | 27.4 | – | 2000 | 888 | 977 | 279000 | – | – | – | – |
| CC(C)Nc1cccnc1N1CCN(C(=O)c2cc3cc(NS(C)(=O)=O)ccc3[nH]2)CC1 [delavirdine] | – | – | – | – | – | – | increase | moderate decrease | substantial decrease | – |
| O=C1Nc2ccc(Cl)cc2[C@@](C#CC2CC2)(C(F)(F)F)O1 [efavirenz] | – | – | – | – | – | – | increase | slight decrease | substantial decrease | – |
| Cc1ccnc2c1NC(=O)c1cccnc1N2C1CC1 [nevirapine, Nevirapine] | – | – | – | – | – | – | significant decrease | substantial decrease | substantial decrease | – |

— patent US20100292232A1, “NON-NUCLEOSIDE REVERSE TRANSCRIPTASE INHIBITORS” (priority 2007, published 2010)
